Assay results taken from patent publication US20230219898A1, “COMPOUNDS AND METHODS FOR BLOCKING APOPTOSIS AND INDUCING AUTOPHAGY” (President and Fellows of Harvard College, priority 2020, published 2023).

Key:
TRADD-N and TRAF2-C = molecular target: T1, TRADD-N and TRAF2-C (Homo sapiens, UniProt Q15628); test: NanoBiT protein-protein interaction assay TRADD-N / TRAF2-C; format: cell-based
T1 construct: expression constructs encoding Flag-TRADD-N(1-179) and HA-TRADD-C(180-312); expressed in transfected cells; host or cells: HEK293T
Procedure: Mean ±s.d. from quadruplicates (n=4).
The Nano-Glo Live Cell assay kit (Promega) was used as follows: HEK293T cells were seeded at 7.5×10^3 cells per well in a white, clear-bottom 96-well plate 12 h before transfection (10 ng LgBiT-fused construct and 10 ng SmBiT-fused construct). After 24 h incubation, medium was removed and replaced with 100 μl Opti-MEM medium for 1 h at 37C. The Nano-Glo reagent was prepared as per manufacturer's instructions and added to each well immediately before the luminescence reading was taken. Luminescence was measured at 1 min intervals for 10 min on a plate reader and reported as relative light units (RLU). For quantitative comparison of LgBiT-SmBiT interactions, the peak values at the 2-3 min time point were used. Concentration of compounds used in NanoBiT assay: 10 μM (Apt-1, ICCB-19 or ICCB-19i).

mice injected with mTNFα = test: In vivo delivery of TNFα, systemic inflammation model; conditions: Apt-1 20 mg/kg i.p. 30 min before mTNFα 9.5 μg i.v.
Procedure: Control mice (n=9) received an equal amount of vehicle before mTNFα challenge. Mean s.e.m. Two-way ANOVA. ***P=0.0007.
WT mice (n=10, male, 8 weeks of age) were injected intravenously via the tail vein with mTNFα (9.5 μg/mouse) after an intraperitoneal injection of Apt-1 (20 mg/kg) 30 min before. Control mice (n=9) received an equal amount of vehicle 30 min before mTNFα challenge. Kaplan Meier survival curve was determined. 25. Vps34 lipid kinase assay HEK293T cells were transfected with Flag-Beclin 1 for 18 h and then treated with ICCB-19, ICCB-19i, Apt-1 (10 μM) for another 6 h. Flag-Beclin 1 was immunoprecipitated by anti-Flag to isolate Beclin 1/Vps34 complex. Immunoprecipitated beads were added with sonicated phosphatidylinositol (1 μl of 5 mg) and ATP (1 μl of 10 mM) in 30 μl reaction buffer (40 mM Tris (pH 7.5), 20 mM MgCl2, 1 mg/ml BSA) for 30 min at room temperature. Wortmannin (10 μM) was used as a control and added into the reaction to inhibit Vps34. The conversion of ATP into ADP levels was measured by an ADP-Glo Kinase Assay Kit (Promega) according to the manufacturer's instructions.

panel of 97 kinases = test: KINOMEscan profiling; format: binding; conditions: 10 μM
Procedure: FIG. 5d depicts the KINOMEscan profiling of Apt-1 (10 μM) against a panel of 97 kinases. Binding interactions reported as % Ctrl, where lower numbers indicate stronger hits. Negative control=DMSO (100% Ctrl); positive control=control compound (0% Ctrl); 0<% Ctrl <0.1 Very Strong; 0.1≤% Ctrl <1 Strong; 1≤% Ctrl <10 Medium; […] Weak; % Ctrl ≥35 No effects. No significant binding of Apt-1 to this panel of 97 kinases was detected. CellTiter-Glo was used to determine cell survival in (a), (b), and (c).
KINOMEscan profiling was used to assess the interaction of Apt-1 with a panel of 97 kinases as a custom service (DiscoverX/Eurofins, San Diego, Calif. USA). Briefly, DNA-tagged recombinant kinases were produced in E. coli. The assay plates with kinases were incubated at room temperature with shaking for 1 h and the affinity beads were washed with wash buffer (1×PBS, 0.05% Tween 20). The beads were then re-suspended in elution buffer. The kinase concentration in the eluates was measured by qPCR. Apt-1 were screened at […], and the results for primary screen binding interactions are reported as % Ctrl, where lower numbers indicate stronger hits in the matrix.

[1] = tested on: PS19 mice injected with tau pffs; test: Tau pff transmission model in PS19 mice, Apt-1 delivered intracerebroventricularly
[2] = tested on: brain slices from PS19 mice; test: Cultured organotypic brain slices from PS19 mice; format: cell-based; conditions: treatment for 3 h
Procedure: FIG. 14g contains epresentative images and quantification of cultured brain slices from PS19 mice (4 months old) stained with phospho-tau (red) and cell nuclei (DAPI/blue). Mean ±s.e.m. from biological replicates (n=5). Two-tailed t-test.
PS19 mice (4 months old) were anesthetized with isoflurane prior to decapitation. The brain was removed and immediately immersed in ice-cold cutting solution (2.5 mM KCl, 5 mM MgCl2, 11 mM D-Glucose, 238 mM Sucrose, 26 mM NaHCO3, 1 mM NaH2PO4, 1 mM CaCl2)). The cerebellum was trimmed off and the caudal end of the brain was glued onto the cutting table of the vibratome (LEICA VT1000 S, Germany). The brain was cut in coronal slices of […] with an amplitude of 1.5 mm, a frequency of 75 Hz and a velocity of 0.1 mm/s. The slices were collected and stored in ice-cold cutting solution before floating onto semi-porous membrane inserts (Millipore, Millicell-CMLow Height Culture Plate Inserts, Schwalbach, Germany). Slices were cultured at 37° C. and 5% CO2 in a culture medium consisting of 394 ml MEM, 10% normal horse serum, 5 mg/mL penicillin, 5 mg/mL streptomycin, 2.5 ml L-glutamine, 1 mM MgSO4, 11 mM D-Glucose, 238 mM Sucrose, 5 mM NaHCO3, 1 mM CaCl2), 26.6 mM HEPES, 0.024 ml 25% ascorbic acid and 0.5 mg Insulin. Medium was changed every other day. Slices are maintained for 14 days in vitro prior to treatment.

T1 sequence (Q15628 1-179): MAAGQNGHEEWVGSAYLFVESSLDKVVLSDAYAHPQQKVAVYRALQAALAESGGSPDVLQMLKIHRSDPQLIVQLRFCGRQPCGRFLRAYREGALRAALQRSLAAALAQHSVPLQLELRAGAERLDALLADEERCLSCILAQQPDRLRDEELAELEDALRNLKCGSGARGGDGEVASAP

CN1CCN=C1SC(C(=O)NC1CCCCCC1)c1ccccc1 (stereo not drawn) [Compound 30]
direct binding of TRADD-N and TRAF2 (NanoBiT) (TRADD-N and TRAF2-C): dose-dependently reduced
survival following intravenously-delivered TNFα (mice injected with mTNFα): increased survival
off-target effects on 97 kinase targets (panel of 97 kinases): no significant off-target effects
survival or behavior of the mice ([1]; 20 mM Apt-1 ICV pump, one month or one week): no apparent difference in survival or behavior
accumulation of tangle-like tau aggregates, delayed dosing ([1]; Apt-1 for 1 week, 3 weeks after pffs): effectively reduce the accumulation of tangle-like tau aggregates
autophagy and levels of tau in hippocampus ([1]; FIG. 3a): induce autophagy and reduce the levels of tau
neurofibrillary tangle-like pathogenesis induced by pffs (AT8, MC1) ([1]; FIG. 3b, 3c): reduced neurofibrillary tangle-like pathogenesis
activated pRIPK1+ and apoptotic TUNEL+ cells in CA1 hippocampus ([1]; FIG. 3d, 3e): inhibited
autophagy and accumulation of mutant tau in brain slices [2]: induced autophagy and reduced the accumulation of mutant tau
